Results: patent publication EP1272220B2, “FORMULATION FOR THE PREVENTION OF CARDIOVASCULAR DISEASE” (Wald, Nicholas John, priority 2000, dated 2001)
Marks after values point to notes of the source that are not given here.

Key:
[1] = Prevalence of adverse effects in randomised placebo controlled trials (treated minus control); format: in vivo, persons; conditions: preferred daily dose: Hydrochlorothiazide 12.5 mg, Atenolol 25 mg, Enalapril 5 mg, Aspirin 75 mg; for Prevalence of any adverse effect in randomised trials (treated minus control) / Prevalence of serious adverse effects (those that warranted withdrawal from randomised trial) (treated minus control): Atorvastatin 10 mg, Folic acid 0.8 mg
Description: The dose of each medication has been chosen to maximise the ratio of benefit to hazard. It is recognised that some persons taking a combination of six drugs would develop adverse effects that were unacceptable. The adverse effects attributable to each of the component medications would be made clear to persons taking the combined formulation and alternative formulations omitting one or more of the component ingredients, with orwithout a substitute ingredient, would be available for persons unable to tolerate one component. […]

[2] = Expected reduction in risk of ischaemic heart disease and stroke, from analyses of cohort studies and randomised controlled trials; format: in vivo, persons
Description: This combined estimate is based on the fact that the effects on the four different risk factors are unrelated and so the expected effects of changing each one will be independent of each other. This expectation is supported by two classes of evidence. […] For example the ratio of the risk of a disease event in persons with high blood pressure and the risk in persons with low blood pressure is similar, irrespective of the values of serum cholesterol and other risk factors. Second, some randomised clinical trials have used combinations of two of the drugs (for example beta blockers and aspirin) in patients with ischaemic heart disease and have shown that the effects are independent (that is, the relative risk in patients who took two drugs (compared with the risk in those who took none) was similar to the relative risk in persons taking one of the drugs multiplied by the relative risk in persons taking the other drug). Accordingly, the effect of the different drugs in combination in Table 3 has been calculated by multiplying the effects of each as shown in footnotes h and j. Table 3 - The constituent drugs in the proposed combined formulation, the cardiovascular risk factors that each alter, the amount by which each factor would be changed, and the resulting expected reduction in risk of ischaemic heart disease and stroke. [table]

[3] = Analysis of blood pressure reduction according to dose in 187 randomised placebo controlled trials of thiazide diuretics, beta-blockers and ACE inhibitors; format: in vivo, persons; conditions: Hydrochlorothiazide 12.5 mg + Atenolol 25 mg + Enalapril 5 mg daily, combined effect, half standard dose
Description: For drugs used to lower blood pressure, the dose of an active principal is below the lower therapeutic dosage for the indication of the active principal. As used herein, the term "therapeutic dosage" is intended to referto the commonly used dose in clinical practice for the treatment of high levels of the risk factor or for the treatment of cardiovascular disease by the separate active principal. The most preferred doses for blood pressure lowering agents are half of the doses at the lower end of the therapeutic range recommended in the British National Formulary of March 2000. This is in order to maximise the therapeutic benefit of the combination of agents, while minimising the risks of adverse effects of the individual agents. […] Most preferably, the dose of a blood pressure lowering agent is about half the recommended dose (or, where a range of doses is given, half of the recommended dose at the lower end of the recommended therapeutic range) for the blood pressure lowering agent.
The corresponding reductions in incidence of ischaemic heart disease and stroke are those to be expected from the blood pressure reductions, from published analyses of cohort studies and randomised controlled trials of blood pressure and ischaemic heart disease and stroke (references 1, 5).

[4] = Folic acid 0.8 mg daily; cited from earlier work
[5] = randomised trials; platelet function not measured; cited from earlier work
[6] = Atorvastatin 10 mg daily; published placebo controlled trials (reference 200); cited from earlier work
[7] = Hydrochlorothiazide 12.5 mg + Atenolol 25 mg + Enalapril 5 mg daily combined, expected from blood pressure reduction of 12 mmHg diastolic
[8] = single drug at preferred daily dose: Atorvastatin 10 mg, Aspirin 75 mg (14 trials of 50-100 mg daily), Folic acid 0.8 mg

CCOC(=O)[C@H](CCc1ccccc1)N[C@@H](C)C(=O)N1CCC[C@H]1C(=O)O [Enalapril]
Commonest adverse effects [1]: cough | Prevalence of any adverse effect in randomised trials (treated minus control) [1]: 2.1%^a | Prevalence of serious adverse effects (those that warranted withdrawal from randomised trial) (treated minus control) [1]: 0.2%^a | Expected reduction in risk of: ischaemic heart disease [2, 7]: 43%^b | Expected reduction in risk of: stroke [2, 7]: 63%^b | Associated physiological variable (reduction produced by drug): Blood pressure, diastolic [3]: (12 mmHg diastolic)^a

Nc1nc2ncc(CNc3ccc(C(=O)N[C@@H](CCC(=O)O)C(=O)O)cc3)nc2c(=O)[nH]1 [Folic acid]
Prevalence of any adverse effect in randomised trials (treated minus control) [1]: <0.1% | Prevalence of serious adverse effects (those that warranted withdrawal from randomised trial) (treated minus control) [1]: <0.1% | Expected reduction in risk of: ischaemic heart disease [2, 8]: 15%^g | Associated physiological variable (reduction produced by drug): Plasma/serum homocysteine [4]: Plasma/serum homocysteine (3 µmol/I)^f

CC(=O)Oc1ccccc1C(=O)O [Aspirin]
Commonest adverse effects [1]: bleeding, indigestion | Prevalence of any adverse effect in randomised trials (treated minus control) [1]: 1.8%^b | Prevalence of serious adverse effects (those that warranted withdrawal from randomised trial) (treated minus control) [1]: 0.7%^b (mainly rectal or urinary bleeding) | Expected reduction in risk of: ischaemic heart disease [2, 8]: 38%^e | Expected reduction in risk of: stroke [2, 8]: 15%^e | incidence of heart attacks and stroke [5]: reduces the incidence of heart attacks and stroke in both high risk and low risk persons

CC(C)NCC(O)COc1ccc(CC(N)=O)cc1 (stereo not drawn) [Atenolol]
Commonest adverse effects [1]: cold extremities, fatigue, dizziness | Prevalence of any adverse effect in randomised trials (treated minus control) [1]: 5.6%^a | Prevalence of serious adverse effects (those that warranted withdrawal from randomised trial) (treated minus control) [1]: 0.9%^a | Expected reduction in risk of: ischaemic heart disease [2, 7]: 43%^b | Expected reduction in risk of: stroke [2, 7]: 63%^b | Associated physiological variable (reduction produced by drug): Blood pressure, diastolic [3]: (12 mmHg diastolic)^a

CC(C)c1c(C(=O)Nc2ccccc2)c(-c2ccccc2)c(-c2ccc(F)cc2)n1CC[C@@H](O)C[C@@H](O)CC(=O)O [Atorvastatin]
Prevalence of any adverse effect in randomised trials (treated minus control) [1]: 0.1% | Prevalence of serious adverse effects (those that warranted withdrawal from randomised trial) (treated minus control) [1]: <0.1% | Expected reduction in risk of: ischaemic heart disease [2, 8]: 61 %^d | Expected reduction in risk of: stroke [2, 8]: 50%^d | Associated physiological variable (reduction produced by drug): Serum cholesterol [6]: Serum cholesterol (1.8 mmol/I)°

NS(=O)(=O)c1cc2c(cc1Cl)NCNS2(=O)=O [Hydrochlorothiazide]
Commonest adverse effects [1]: dizziness, impotence, nausea | Prevalence of any adverse effect in randomised trials (treated minus control) [1]: 1.4%^a | Prevalence of serious adverse effects (those that warranted withdrawal from randomised trial) (treated minus control) [1]: 0.1%^a | Expected reduction in risk of: ischaemic heart disease [2, 7]: 43%^b | Expected reduction in risk of: stroke [2, 7]: 63%^b | Associated physiological variable (reduction produced by drug): Blood pressure, diastolic [3]: (12 mmHg diastolic)^a
